Laboratory results reported in ChEMBL document CHEMBL1128106, “Oligonucleotide duplex stability controlled by the 7-substituents of 7-deazaguanine bases” (Bioorg Med Chem Lett, 1995).

What was measured:
[1] = Half life (t) of enzymatic phosphodiester hydrolysis of compound towards snake venom (SV-PDE) at a concentration of 4 microg; type: ADME; details: serpentes, snake venom phosphodiesterase (SV-PDE)
[2] = Half life (t) of enzymatic phosphodiester hydrolysis of compound towards calf spleen (CS-PDE) at a concentration of 20 microg; type: ADME, Bos taurus; details: cattle, calf spleen phosphodiesterase (CS-PDE)

Compound | half-life [1] | half-life [2]
COP(=O)(OC[C@H]1O[C@@H](n2ccc(N)nc2=O)C[C@@H]1OP(=O)(O)OC[C@H]1O[C@@H](n2cc(C)c3c(=O)[nH]c(N)nc32)C[C@@H]1OP(=O)(O)OC[C@H]1O[C@@H](n2ccc(N)nc2=O)C[C@@H]1O)O[C@H]1C[C@H](n2cc(C)c3c(=O)[nH]c(N)nc32)O[C@@H]1COP(=O)(O)O[C@H]1C[C@H](n2ccc(N)nc2=O)O[C@@H]1COP(=O)(O)O[C@H]1C[C@H](n2cc(C)c3c(=O)[nH]c(N)nc32)O[C@@H]1COP(=O)(O)O[C@H]1C[C@H](n2ccc(N)nc2=O)O[C@@H]1COP(=O)(O)O[C@H]1C[C@H](n2cc(C)c3c(=O)[nH]c(N)nc32)O[C@@H]1COP(=O)(O)O (some centres not stated) | 16 min | > 1200 min
Nc1nc2c(ncn2[C@H]2C[C@H](O)[C@@H](COP(=O)(O)O[C@H]3C[C@H](n4cc(I)c5c(=O)[nH]c(N)nc54)O[C@@H]3COP(=O)(O)O[C@H]3C[C@H](n4cc(I)c5c(=O)[nH]c(N)nc54)O[C@@H]3COP(=O)(O)O[C@H]3C[C@H](n4cc(I)c5c(=O)[nH]c(N)nc54)O[C@@H]3COP(=O)(O)O[C@H]3C[C@H](n4cc(I)c5c(=O)[nH]c(N)nc54)O[C@@H]3COP(=O)(O)O[C@H]3C[C@H](n4cc(I)c5c(=O)[nH]c(N)nc54)O[C@@H]3COP(=O)(O)O)O2)c(=O)[nH]1 | 26 min | > 1200 min
Nc1nc2c(ccn2[C@H]2C[C@H](OP(=O)(O)OC[C@H]3O[C@@H](n4ccc5c(=O)[nH]c(N)nc54)C[C@@H]3OP(=O)(O)OC[C@H]3O[C@@H](n4ccc5c(=O)[nH]c(N)nc54)C[C@@H]3OP(=O)(O)OC[C@H]3O[C@@H](n4ccc5c(=O)[nH]c(N)nc54)C[C@@H]3OP(=O)(O)OC[C@H]3O[C@@H](n4ccc5c(=O)[nH]c(N)nc54)C[C@@H]3OP(=O)(O)OC[C@H]3O[C@@H](n4cnc5c(=O)[nH]c(N)nc54)C[C@@H]3O)[C@@H](COP(=O)(O)O)O2)c(=O)[nH]1 | 2.5 min | > 1200 min
Nc1ccn([C@H]2C[C@H](OP(=O)(O)OC[C@H]3O[C@@H](n4cnc5c(=O)[nH]c(N)nc54)C[C@@H]3OP(=O)(O)OC[C@H]3O[C@@H](n4ccc(N)nc4=O)C[C@@H]3OP(=O)(O)OC[C@H]3O[C@@H](n4cnc5c(=O)[nH]c(N)nc54)C[C@@H]3OP(=O)(O)OC[C@H]3O[C@@H](n4ccc(N)nc4=O)C[C@@H]3OP(=O)(O)OC[C@H]3O[C@@H](n4cnc5c(=O)[nH]c(N)nc54)CC3OP(=O)(O)OC[C@H]3O[C@@H](n4ccc(N)nc4=O)C[C@@H]3O)[C@@H](COP(=O)(O)O[C@H]3C[C@H](n4cnc5c(=O)[nH]c(N)nc54)O[C@@H]3COP(=O)(O)O)O2)c(=O)n1 (some centres not stated) | 2.5 min | 82 min
COP(=O)(OC[C@H]1O[C@@H](n2ccc(N)nc2=O)C[C@@H]1OP(=O)(O)OC[C@H]1O[C@@H](n2ccc3c(=O)[nH]c(N)nc32)C[C@@H]1OP(=O)(O)OC[C@H]1O[C@@H](n2ccc(N)nc2=O)C[C@@H]1O)O[C@H]1C[C@H](n2ccc3c(=O)[nH]c(N)nc32)O[C@@H]1COP(=O)(O)O[C@H]1C[C@H](n2ccc(N)nc2=O)O[C@@H]1COP(=O)(O)O[C@H]1C[C@H](n2ccc3c(=O)[nH]c(N)nc32)O[C@@H]1COP(=O)(O)O[C@H]1C[C@H](n2ccc(N)nc2=O)O[C@@H]1COP(=O)(O)O[C@H]1C[C@H](n2ccc3c(=O)[nH]c(N)nc32)O[C@@H]1COP(=O)(O)O (some centres not stated) | 1.3 min | ~1000 min
COP(=O)(OC[C@H]1O[C@@H](n2ccc(N)nc2=O)C[C@@H]1OP(=O)(O)OC[C@H]1O[C@@H](n2cc(I)c3c(=O)[nH]c(N)nc32)C[C@@H]1OP(=O)(O)OC[C@H]1O[C@@H](n2ccc(N)nc2=O)C[C@@H]1O)O[C@H]1C[C@H](n2cc(I)c3c(=O)[nH]c(N)nc32)O[C@@H]1COP(=O)(O)O[C@H]1C[C@H](n2ccc(N)nc2=O)O[C@@H]1COP(=O)(O)O[C@H]1C[C@H](n2cc(I)c3c(=O)[nH]c(N)nc32)O[C@@H]1COP(=O)(O)O[C@H]1C[C@H](n2ccc(N)nc2=O)O[C@@H]1COP(=O)(O)O[C@H]1C[C@H](n2cc(I)c3c(=O)[nH]c(N)nc32)O[C@@H]1COP(=O)(O)O (some centres not stated) | 17 min | > 1200 min
